Results taken from ChEMBL document CHEMBL1201862, “PubChem BioAssay data set” (2004).
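Five concentrations, 48 hours, 96-well plates. Abbreviation: GI50, concentration required for 50% inhibition of growth.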 Active and inactive are the calls of the source. Rule as the data show it: active = GI50 up to about 1.1 µM and inactive = higher.

Experiments:
Assay in all cases: inhibition of tumour cell growth, NCI panel, 48 h
CCRF-CEM = tested on: CCRF-CEM
OVCAR-5 = tested on: OVCAR-5
SNB-78 = tested on: SNB-78
786-0 = tested on: 786-0
SW-620 = tested on: SW-620
ACHN = tested on: ACHN
SR = tested on: SR
KM12 = tested on: KM12
M14 = tested on: M14
SK-MEL-2 = tested on: SK-MEL-2
DMS-114 = tested on: DMS-114
A549 = tested on: A549
OVCAR-8 = tested on: OVCAR-8
NCI-H23 = tested on: NCI-H23
COLO 205 = tested on: COLO 205

Measured: GI50

Cc1nc2c(n1-c1ccccc1)C(=O)c1ccccc1C2=O
inactive: CCRF-CEM 32.1 µM | OVCAR-5 > 100 µM | SNB-78 27.5 µM | 786-0 76.7 µM | SW-620 35.5 µM | ACHN 56.9 µM | SR 37.1 µM | KM12 50.2 µM | M14 42 µM | SK-MEL-2 > 100 µM | DMS-114 21.6 µM | A549 38.5 µM | OVCAR-8 42.4 µM | NCI-H23 22.4 µM

NS(=O)(=O)c1ccc(NC(=O)C2C(=O)C(=O)N(c3ccc(S(N)(=O)=O)cc3)C2=O)cc1 (centres undefined)
inactive: CCRF-CEM > 100 µM | OVCAR-5 > 100 µM | SNB-78 > 100 µM | 786-0 > 100 µM | SW-620 > 100 µM | ACHN > 100 µM | SR > 100 µM | M14 > 100 µM | SK-MEL-2 > 100 µM | COLO 205 > 100 µM | DMS-114 > 100 µM | A549 > 100 µM | OVCAR-8 > 100 µM | NCI-H23 > 100 µM

CCOc1ccccc1NC(=O)CCc1nnc(S)[nH]1
inactive: CCRF-CEM > 100 µM | OVCAR-5 > 100 µM | SNB-78 > 100 µM | 786-0 > 100 µM | SW-620 > 100 µM | ACHN > 100 µM | SR > 100 µM | KM12 > 100 µM | M14 > 100 µM | SK-MEL-2 > 100 µM | COLO 205 > 100 µM | DMS-114 59.7 µM | A549 > 100 µM | OVCAR-8 > 100 µM | NCI-H23 > 100 µM

O=C(Nc1cccc(O)c1)C(=O)C1C(=O)NC(=S)NC1=O
inactive: CCRF-CEM > 100 µM | SNB-78 > 100 µM | 786-0 > 100 µM | SW-620 > 100 µM | ACHN > 100 µM | SR > 100 µM | M14 > 100 µM | COLO 205 > 100 µM | DMS-114 > 100 µM | A549 > 100 µM | OVCAR-8 > 100 µM | NCI-H23 > 100 µM

CCOC(=O)[N-]c1ccc(S(=O)(=O)[O+](C)CCl)cc1.CCOC(=O)[N-]c1ccc(S(=O)(=O)[O+](C)CCl)cc1.NC(=O)N=O.NC(=O)OCCCl
inactive: CCRF-CEM > 100 µM | OVCAR-5 > 100 µM | SNB-78 > 100 µM | 786-0 > 100 µM | SW-620 > 100 µM | SR > 100 µM | KM12 > 100 µM | M14 > 100 µM | SK-MEL-2 > 100 µM | COLO 205 > 100 µM | DMS-114 > 100 µM | A549 > 100 µM | OVCAR-8 > 100 µM | NCI-H23 > 100 µM
